The nature of data set [1]: In vivo metabolic stability in HepG2 tumor-bearing mice. The conditions noted are these: 1 h after intravenous injection. As for the experimental part: In Vivo Metabolic Stability. HepG2 tumor-bearing mice (n=3/group) were intravenously injected with 5.55 MBq of Al[^18F]F-GP2076 or Al[^18F]F-GP2633. At 1 h after the injection, the mice were euthanized, and the HepG2 tumor, blood, liver, kidneys, and urine samples were collected. Briefly, the blood sample was immediately centrifuged for 5 min at 12,000 rpm. The HepG2 tumor, liver, and kidneys were homogenized and then centrifuged for 5 min at 12,000 rpm. The supernatant from each sample was passed through an ultrafiltration tube (Millipore, USA) and then centrifuged for 10 min at 12,000 rpm. The urine sample was diluted with 100 μl of PBS. The filtrate from each sample was injected into analytic HPLC. The HPLC eluents were collected with a fraction collector (one fraction/30 sec), and the radioactivity of each fraction was measured by gamma counting.

A short description of data set [2]: In vitro stability in PBS and mouse serum. The conditions noted are these: PBS at room temperature and mouse serum at 37° C., 2 h incubation, HPLC. The format is in vitro ADME. As for the experimental part: In Vitro Stability. The stability of Al[^18F]F-GP2076 or Al[^18F]F-GP2633 was evaluated in PBS and mouse serum. Briefly, 5.55 MBq of Al[^18F]F-GP2076 or Al[^18F]F-GP2633 was incubated with 0.5 ml of PBS at room temperature or mouse serum at 37° C. with gentle shaking. The stability test was carried out at 2 h after the incubation. For the PBS study, an aliquot of the solution was taken, and the radiochemical purity was determined by analytical HPLC. For the mouse serum study, after the addition of TFA, the mixture was passed through a 0.2-μm filter. An aliquot of the soluble fraction was taken, and the radiochemical purity was examined by analytical HPLC.

Molecules are shown by their SMILES.

For the molecule `CC(C)C[C@H](NC(=O)[C@H](CCCNC(=N)N)NC(=S)Nc1ccc(CC2CN(CC(=O)O)CCN(CC(=O)O)CCN2CC(=O)O)cc1)C(=O)N[C@@H](CC(N)=O)C(=O)N[C@H](C(=O)NCC(=O)NCC(=O)N[C@H](C(=O)N[C@@H](Cc1ccc(O)cc1)C(=O)N[C@@H](Cc1ccccc1)C(=O)N[C@@H](CC(C)C)C(=O)N[C@H](C(=O)N[C@H](C(=O)N[C@@H](CCCNC(=N)N)C(=O)N[C@@H](CCC(N)=O)C(=O)O)[C@@H](C)O)[C@@H](C)O)[C@@H](C)O)C(C)C` (single isomer, unassigned) [Al[^18F]F-GP2076], in data set [1], the “percentage of parent F-18 labeled peptide in HepG2 tumor” value is on record as 97.69±2.51%, the “percentage of parent F-18 labeled peptide in blood” value is listed as 96.68±1.55%, the “percentage of parent F-18 labeled peptide in kidneys” value is listed as 54.94±2.12% and the “percentage of parent F-18 labeled peptide in liver” value worked out at 96.06±0.54%. In addition, the “percentage of parent F-18 labeled peptide in urine” value in data set [1] was 3.31±0.20%. Moreover, the “percentage of intact radiotracer (in vitro stability)” value in data set [2] is on record as more than 95%.

(Values after patent publication US20210347709A1, “RADIOFLUORINATED GPC3-BINDING PEPTIDES FOR PET IMAGING OF HEPATOCELLULAR CARCINOMA” (University of Southern California, priority 2020, published 2021).)
